Assay: mn = molality of the nth substance listed, in mol/kg
Details: Liquid, Vibrating tube method

[Ca+2].[Cl-].[Cl-] [calcium chloride] + O
mass density [kg/m3]
Details | 283.15 K | 298.12 K | 323.07 K | 348.04 K | 372.99 K | 397.97 K | 422.94 K | 447.94 K | 472.96 K
1050 kPa, m1 = 1 | 1087.02 | 1082.37 | 1072.02 | 1058.99 | 1043.73 | 1026.22 | 1006.8 | 985.31 | –
1050 kPa, m1 = 3 | – | 1225.07 | 1212.47 | 1198.77 | 1184.12 | 1167.99 | 1150.79 | 1132.22 | –
1050 kPa, m1 = 6 | – | 1388 | 1372.06 | 1356.18 | 1340.35 | 1324.03 | 1307.39 | 1290.23 | –
10020 kPa, m1 = 1 | 1090.65 | 1085.93 | 1075.48 | 1062.51 | 1047.42 | 1030.11 | 1011.09 | 989.96 | 966.77
10020 kPa, m1 = 3 | – | 1228.17 | 1215.47 | 1201.83 | 1187.2 | 1171.26 | 1154.33 | 1135.97 | 1116.32
10020 kPa, m1 = 6 | – | 1390.67 | 1374.67 | 1358.9 | 1343.09 | 1326.81 | 1310.4 | 1293.23 | 1275.65
19970 kPa, m1 = 1 | 1094.63 | 1089.7 | 1079.27 | 1066.31 | 1051.39 | 1034.38 | 1015.62 | 995.04 | 972.43
19970 kPa, m1 = 3 | – | 1231.3 | 1218.73 | 1205.15 | 1190.58 | 1174.82 | 1158.03 | 1139.99 | 1120.67
19970 kPa, m1 = 6 | – | 1393.43 | 1377.58 | 1361.82 | 1346.07 | 1329.91 | 1313.54 | 1296.61 | 1279.19
29900 kPa, m1 = 1 | 1098.56 | 1093.48 | 1082.99 | 1070.05 | 1055.27 | 1038.38 | 1020 | 999.9 | 977.79
29900 kPa, m1 = 3 | – | 1234.6 | 1221.98 | 1208.41 | 1193.94 | 1178.23 | 1161.68 | 1143.88 | 1124.82
29900 kPa, m1 = 6 | – | 1396.28 | 1380.48 | 1364.67 | 1349.03 | 1332.86 | 1316.63 | 1299.83 | 1282.53
39830 kPa, m1 = 1 | 1102.39 | 1097.27 | 1086.62 | 1073.75 | 1059.05 | 1042.42 | 1024.3 | 1004.57 | 983.04
39830 kPa, m1 = 3 | – | 1237.81 | 1225.08 | 1211.58 | 1197.14 | 1181.65 | 1165.21 | 1147.62 | 1129.01
39830 kPa, m1 = 6 | – | 1399.14 | 1383.27 | 1367.55 | 1351.92 | 1335.87 | 1319.7 | 1303.02 | 1285.96
49760 kPa, m1 = 1 | 1106.11 | 1100.95 | 1090.1 | 1077.29 | 1062.77 | 1046.36 | 1028.53 | 1009.07 | 988.08
49760 kPa, m1 = 3 | – | 1240.96 | 1228.11 | 1214.64 | 1200.38 | 1184.96 | 1168.72 | 1151.3 | 1132.99
49760 kPa, m1 = 6 | – | 1401.93 | 1385.94 | 1370.29 | 1354.76 | 1338.78 | 1322.71 | 1306.09 | 1289.19
59680 kPa, m1 = 1 | 1109.84 | 1104.52 | 1093.62 | 1080.87 | 1066.34 | 1050.19 | 1032.62 | 1013.53 | 992.91
59680 kPa, m1 = 3 | – | 1244 | 1231.21 | 1217.8 | 1203.46 | 1188.2 | 1172.12 | 1154.99 | 1136.86
59680 kPa, m1 = 6 | – | 1404.61 | 1388.68 | 1373.09 | 1357.57 | 1341.67 | 1325.64 | 1309.22 | 1292.45
68120 kPa, m1 = 1 | 1113.04 | 1107.46 | 1096.56 | 1083.78 | 1069.39 | 1053.29 | 1036 | 1017.15 | 996.86
68120 kPa, m1 = 3 | – | 1246.57 | 1233.72 | 1220.39 | 1206.1 | 1190.88 | 1174.94 | 1157.94 | 1140.04
68120 kPa, m1 = 6 | – | 1406.89 | 1390.9 | 1375.4 | 1359.88 | 1344 | 1328.12 | 1311.73 | 1295.04

From the NIST ThermoML archive (doi:10.1021/je2013704)
